The target in the assay is T1, BSA (Bos taurus, UniProt P02769).
T1 construct: purchased Sigma
Kind of assay: BSA interaction. As to conditions: BSA 20 μg/mL, probe 5 μM. The assay is classed as binding. Here is the method:
CRANAD-2 was added to a BSA (20 μg/mL) solution to make the final concentration of 5 μM. The fluorescence spectrum of the above mixture was recorded (excited at 590 nm). For comparisons, CRANAD-2 (5 μM) in PBS, PBS alone, and Aβ40 aggregates ([…]) and CRANAD-2 (5 μM) were prepared.
Since serum albumin is the most abundant plasma protein, it was important to test whether the probe had any affinity toward this protein. To test this the inventors incubated CRANAD-2 probe with BSA. For controls, the inventors used PBS buffer alone, the probe incubated in PBS alone, and with Aβ40 aggregates. […] In addition, the inventors tested CRANAD-2 stability by incubating the probe (4×10^−6M) with human serum for 2 hours at 37° C.

Entries after “also recorded” stand apart in the source; their conditions may differ.

T1 sequence (P02769 25-607): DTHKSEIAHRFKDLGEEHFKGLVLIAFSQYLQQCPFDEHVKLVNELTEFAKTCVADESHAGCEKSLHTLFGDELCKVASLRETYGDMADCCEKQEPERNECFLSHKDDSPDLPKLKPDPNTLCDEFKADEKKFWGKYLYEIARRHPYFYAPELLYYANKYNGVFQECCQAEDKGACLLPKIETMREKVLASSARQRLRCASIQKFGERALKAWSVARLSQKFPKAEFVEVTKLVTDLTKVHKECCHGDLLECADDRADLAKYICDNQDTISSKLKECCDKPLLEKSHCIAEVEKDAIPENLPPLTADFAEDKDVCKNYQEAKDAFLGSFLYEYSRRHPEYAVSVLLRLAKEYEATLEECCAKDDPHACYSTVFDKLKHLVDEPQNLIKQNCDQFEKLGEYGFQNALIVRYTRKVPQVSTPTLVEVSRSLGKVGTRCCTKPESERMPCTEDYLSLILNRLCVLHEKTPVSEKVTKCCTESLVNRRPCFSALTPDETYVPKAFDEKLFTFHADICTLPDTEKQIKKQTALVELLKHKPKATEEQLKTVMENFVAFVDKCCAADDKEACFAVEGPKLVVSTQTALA

Turning to `CN(C)c1ccc(/C=C/C2=CC(/C=C/c3ccc(N(C)C)cc3)=[O+][B-](F)(F)O2)cc1` [CRANAD-2], the “Binding to BSA / fluorescence change with BSA” value is reported as “did not observe any significant change in fluorescence; also recorded: did not show any significant binding; also recorded: does not show any significant binding”.
